# Test results from patent US20220125837A1, “METHODS FOR CONTROLLED ELIMINATION OF THERAPEUTIC CELLS” (Bellicum Pharmaceuticals, Inc., priority 2014, published 2022).
# What was measured:
# [1] = test system: Jurkat cells; assay: CID-induced apoptosis (annexin V) in transduced Jurkat cells; assay type: cell-based, human; conditions: 10 nM CID for 8 hours
# [2] = test system: iCasp9M.IRES.GFPhigh-transduced CTLs; assay: SCID mouse-human xenograft: elimination of iCasp9M CTLs by CID; assay type: in vivo, NOD/SCID mice; conditions: single dose of CID (50 μg AP20187 intraperitoneally), three days after
# Experimental: Non-obese diabetic severe combined immunodeficient (NOD/SCID) mice, 6 to 8 weeks of age, were irradiated (250 rad) and injected subcutaneously in the right flank with 10×10^6 to 15×10^6 LCLs resuspended in Matrigel (BD Bioscience). Two weeks later mice bearing tumors that were approximately 0.5 cm in diameter were injected into the tail vein with a 1:1 mixture of nontransduced and iCasp9.I.GFPhigh-transduced EBV CTLs (total 15×10^6). At 4 to 6 hours prior and 3 days after CTL infusion, mice were injected intraperitoneally with recombinant hIL-2 (2000 U; Proleukin; Chiron). […] By FACS analysis, the number of GFP+ cells within the gated CD3^+ population was evaluated. […]
# The function of iCasp9M also was evaluated in transduced EBV-CTLs in vivo. […] Three days after CID/carrier administration, tumors were analyzed for human CD3^+/GFP^+ cells. […]
# The function of iCasp9M in vivo, was assayed. […] On day 3 after CTL administration, mice received either CID (50 μg AP20187; (black diamonds, n=6) or carrier only (black squares, n=5) and on day 6 the presence of human CD3+/GFP+ T cells in the tumors was analyzed. Human CD3+ T cells isolated from the tumors of a control group of mice that received only nontransduced CTLs (15×10^6 CTLs; n=4) were used as a negative control for the analysis of CD3+/GFP+ T cells within the tumors.
# [3] = test system: gene-modified allodepleted cells (SFG.iCasp9.2A.CD19); assay: Induction of apoptosis with AP20187 in gene-modified allodepleted cells (annexin V/7-AAD); assay type: cell-based, human
# Experimental: Suicide gene functionality was assessed by adding a small molecule synthetic homodimerizer, AP20187 (Ariad Pharmaceuticals; Cambridge, Mass.), at 10 nM final concentration the day following CD19 immunomagnetic selection. Cells were stained with annexin V and 7-amino-actinomycin (7-AAD)(BD Pharmingen) at 24 hours and analyzed by flow cytometry. Cells negative for both annexin V and 7-AAD were considered viable, cells that were annexin V positive were apoptotic, and cells that were both annexin V and 7-AAD positive were necrotic. The percentage killing induced by dimerization was corrected for baseline viability as follows: Percentage killing=100%−(% Viability in AP20187-treated cells÷% Viability in non-treated cells).
# The day following immunomagnetic selection, 10 nM of the chemical inducer of dimerization, AP20187, was added to induce apoptosis, which appeared within 24 hours.
# [4] = large-scale CD19 selection (n=3)
smiles,measurement,setting,value
CC[C@H](C(=O)N1CCCC[C@H]1C(=O)O[C@H](CCc1ccc(OC)c(OC)c1)c1cccc(OCC(=O)NCC(CNC(=O)COc2cccc([C@@H](CCc3ccc(OC)c(OC)c3)OC(=O)[C@@H]3CCCCN3C(=O)[C@@H](CC)c3cc(OC)c(OC)c(OC)c3)c2)CN(C)C)c1)c1cc(OC)c(OC)c(OC)c1 [AP20187],apoptosis (annexin-V staining),[1]; iCasp9M-transduced Jurkat,57.2%+/−18.9%
same,apoptosis (annexin-V staining),[1]; iFas-transduced Jurkat,56.4%+/−15.6%
same,reduction in the number of human CD3+/GFP+ T cells in tumors vs carrier,[2]; listed as CID,> 99%
same,reduction in the number of human CD3+/GFP+ T cells in tumors vs carrier,[2]; listed as dimerizer,more than 99%
same,Killing efficiency after correction for baseline viability,"[3]; 10 nM, 24 hours",about 92.9%±3.8%
same,AP20187-treated cells remaining viable,"[3]; 10 nM, 24 hours, day following CD19 selection",about 5.5%±2.5%
same,apoptosis after treatment with dimerizer,[3]; iCasp9 donor T cells,> 90%
same,mean viability with AP20187,[3]; [4],about 3.9%
same,percentage killing,[3]; [4],about 95.4%
same,mean viability with AP20187,[3]; small-scale selection (n=5),about 6.6%
same,percentage killing,[3]; small-scale selection (n=5),about 91.4%
